{"source": "paper PMC4965148", "about": "(PLoS ONE, 2016)", "key": {"HEK293/Human 5-HT3A": {"biological_target": "T1, HEK293/Human 5-HT3A (Homo sapiens, UniProt P46098)", "T1 construct": "expressed in transfected cells; host or cells: HEK293 (made by Bristol-Myers Squibb)", "T1 sequence (P46098 24-478)": "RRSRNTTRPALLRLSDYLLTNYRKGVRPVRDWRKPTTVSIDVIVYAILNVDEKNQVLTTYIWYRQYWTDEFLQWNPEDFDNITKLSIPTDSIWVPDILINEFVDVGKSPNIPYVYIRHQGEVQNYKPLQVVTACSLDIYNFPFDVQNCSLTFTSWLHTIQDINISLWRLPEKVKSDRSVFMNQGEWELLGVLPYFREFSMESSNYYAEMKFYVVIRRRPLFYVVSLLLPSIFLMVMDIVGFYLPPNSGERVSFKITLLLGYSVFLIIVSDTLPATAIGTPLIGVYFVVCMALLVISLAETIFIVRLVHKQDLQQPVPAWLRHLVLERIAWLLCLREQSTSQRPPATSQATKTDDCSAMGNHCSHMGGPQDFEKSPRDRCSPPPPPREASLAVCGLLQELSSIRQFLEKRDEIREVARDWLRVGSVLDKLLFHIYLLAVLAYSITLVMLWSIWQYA", "assay": "Ca2+ flux (FLIPR) 5-HT3A antagonist assay", "assay_type": "cell-based", "experimental": "Functional activity was examined using Ca^2+-sensitive, dye-based, microfluorometric assays read on the FLIPR Tetra plate reader platform (Molecular Devices, CA, USA). Cells were plated in 384-well black, clear-bottomed Greiner poly-D-lysine coated plates at a density of ~25 K cells/well and incubated at 29°C for 48 h. Prior to assay, media contents were removed and cells incubated in assay buffer containing 5μM final Fluo-4 dye for 90 min. For nAChR assays, the dye-loading buffer was HBSS (#14175 Life Technologies) supplemented with 20 mM HEPES, 0.5 mM CaCl2, 1 mM MgCl2 and 10 μM atropine (final concentration). Test compounds were solubilized in DMSO and serially diluted in NUNC 384-well plates prior to addition of assay buffer (5.3 mM KCl + 140 mM NaCl + 20 mM Hepes + 25 mM CaCl2 + 1 mM MgCl2 + 10 μM atropine final concentration). Compounds diluted in assay buffer were added to the assay plate by the FLIPR and read for approximately 2 min. […] For 5-HT3A antagonist studies, the dye loading and compound diluent buffer was HBSS (#14025 Life Technologies) supplemented with 20 mM HEPES (final concentration) and the concentration of 5-HT used in the assay was 2 μM. Offline transformation of concentration response data was done using a 4 parameter logistic fit using a Bristol-Myers Squibb proprietary informatics software suite."}, "α7 nAChR [1]": {"biological_target": "T2, α7 nAChR (Mus musculus, UniProt P49582)", "T2 construct": "One forebrain hemisphere from each animal was thawed and homogenized in assay buffer; from tissue; host or cells: forebrain homogenate of dosed male C57Bl/6 mice", "T2 sequence (P49582 23-502)": "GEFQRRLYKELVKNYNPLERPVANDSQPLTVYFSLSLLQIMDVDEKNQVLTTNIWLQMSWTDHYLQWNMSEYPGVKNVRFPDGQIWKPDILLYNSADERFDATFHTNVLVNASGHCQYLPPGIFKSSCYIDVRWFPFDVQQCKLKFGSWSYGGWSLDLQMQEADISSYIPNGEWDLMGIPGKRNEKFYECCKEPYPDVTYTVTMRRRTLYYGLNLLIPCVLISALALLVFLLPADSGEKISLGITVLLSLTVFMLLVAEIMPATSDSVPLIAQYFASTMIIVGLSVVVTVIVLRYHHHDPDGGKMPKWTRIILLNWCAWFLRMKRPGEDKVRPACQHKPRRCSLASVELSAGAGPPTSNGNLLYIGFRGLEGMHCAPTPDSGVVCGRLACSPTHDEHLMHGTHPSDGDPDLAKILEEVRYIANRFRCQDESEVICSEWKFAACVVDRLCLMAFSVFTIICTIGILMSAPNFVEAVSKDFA", "assay": "Ex vivo α7 nAChR occupancy ([3H]-A-585539)", "assay_type": "in vivo", "method": "Occupancy determinations were made either on completion of behavioral testing or in satellite groups of animals dosed in parallel with behavioral testing. At specified time points after dosing, the forebrain (for occupancy), the remaining hindbrain (for brain drug exposure) and plasma were collected, frozen in chilled isopentane and stored at -80°C until assayed. […] Homogenized tissue aliquots were frozen immediately and stored at -80°C. […] The filters were washed with ice-cold assay buffer, punched into a clear plate and 200 μl scintillation fluid added per well. Bound radioactivity was measured using a Wallac Microbeta liquid scintillation counter. Specific binding was calculated by subtracting the value of the non-specific binding from that of the total binding in each sample. The percent occupancy was calculated as [1 –(specific binding in drug treated mice/specific binding in vehicle treated mice)] x 100."}, "α7 nAChR [2]": {"biological_target": "T3, α7 nAChR (Rattus norvegicus, UniProt Q05941)", "T3 construct": "One forebrain hemisphere from each animal was thawed and homogenized in assay buffer; from tissue; host or cells: forebrain homogenate of dosed male Sprague Dawley rats", "T3 sequence (Q05941 23-502)": "as the sequence (P49582 23-502) above, with T402A counted along it", "assay": "Ex vivo α7 nAChR occupancy ([3H]-A-585539)", "assay_type": "in vivo", "details": "for receptor occupancy at 10 mg/kg: rat"}, "[3]": {"assay": "Plasma and brain concentrations after dosing", "assay_type": "in vivo, rat", "details": "for concentration at 150 min / concentration at 30 min / Kp at 150 min: rat; for concentration at 150 min / concentration at 30 min: brain, read-out: Brain Mean ± SD; for concentration at 150 min / Kp at 150 min: oral; for concentration at 30 min: sc; for Kp at 150 min: brain/plasma", "method": "At specified time points after dosing, the forebrain (for occupancy), the remaining hindbrain (for brain drug exposure) and plasma were collected, frozen in chilled isopentane and stored at -80°C until assayed.\nIn brief, 50 μL of the plasma sample was extracted by protein precipitation with 150 μL acetonitrile containing an internal standard and 5 μL of supernatant injected into the LC-MS/MS system. Analytes were separated by reversed phase chromatography and detection of each analyte was achieved through selected reaction monitoring mode of mass spectrometry."}, "[4]": {"details": "1 mg/kg, Rat MK-801 Set Shift (0.3-3 mg/kg study), 1 mg/kg po, 150 min"}, "[5]": {"details": "3 mg/kg, Rat MK-801 Set Shift (0.3-3 mg/kg study), 3 mg/kg po, 150 min"}, "[6]": {"details": "3 mg/kg, Rat MK-801 Set Shift (3-30 mg/kg study), 3 mg/kg po, 150 min"}, "[7]": {"details": "10 mg/kg, Rat MK-801 Set Shift (3-30 mg/kg study), 10 mg/kg po, 150 min"}}, "note": "“And” between values parts separate entries of the source, which are not always exact repeats. Identical values can stand only once. Like-named read-outs stand apart in the source and are kept apart here."}
{"compound": "c1cn(-c2cc(NC3=NC[C@@]4(CN5CCC4CC5)O3)ncn2)cn1", "note": "[BMS-933043, (2R)-N-(6-(1H-imidazol-1-yl)-4-pyrimidinyl)-4'H-spiro[4-azabicyclo[2.2.2]octane-2,5'-[1,3]oxazol]-2'-amine]", "values": [{"measurement": "IC50", "setting": "HEK293/Human 5-HT3A; HEK293/Human 5-HT3A Mean ± SD IC50, Ca2+ flux (FLIPR), antagonism of 2 μM 5-HT", "value": 8.07, "unit": "µM"}, {"measurement": "IC50", "setting": "HEK293/Human 5-HT3A; Human 5-HT3A IC50 values (individual), FLIPR, individual determinations", "value": "10.5 µM and 7.2 µM and 8.02 µM and 6.88 µM and 7.28 µM and 4.89 µM and 12.4 µM and 5.32 µM and 8.67 µM and 9.42 µM"}, {"measurement": "EC50", "setting": "α7 nAChR [1]", "value": 1900, "unit": "nM"}, {"measurement": "% ex vivo α7 nAChR occupancy", "setting": "α7 nAChR [1]; 0.3 mg/kg sc, 30 min, individual mice", "value": "11.2% and -5.2% and 7.5% and -6.3%"}, {"measurement": "% ex vivo α7 nAChR occupancy", "setting": "α7 nAChR [1]; 1 mg/kg sc, 30 min", "value": "18.3% and 25.5% and 25.4% and ~ 20%"}, {"measurement": "% ex vivo α7 nAChR occupancy", "setting": "α7 nAChR [1]; 3 mg/kg sc, 30 min, individual mice", "value": "56.2% and 44.9% and 45.1%"}, {"measurement": "% ex vivo α7 nAChR occupancy", "setting": "α7 nAChR [1]; 10 mg/kg sc, 30 min", "value": "76.4% and 74.8% and 75.4% and > 75%"}, {"measurement": "% ex vivo α7 nAChR occupancy", "setting": "α7 nAChR [1]; 100 mg/kg sc, 30 min, individual mice", "value": "93.3% and 94.1% and 92.1%"}, {"measurement": "receptor occupancy at 1 mg/kg", "setting": "α7 nAChR [1]; mouse, sc, read-out: % ex vivo α7 nAChR occupancy, 1 mg/kg sc, 30 min", "value": 23.9, "unit": "%"}, {"measurement": "receptor occupancy at 3 mg/kg", "setting": "α7 nAChR [1]; mouse, sc, read-out: % ex vivo α7 nAChR occupancy, 3 mg/kg sc, 30 min, individual mice", "value": 41.3, "unit": "%"}, {"measurement": "receptor occupancy at 10 mg/kg", "setting": "α7 nAChR [1]; mouse, sc, read-out: % ex vivo α7 nAChR occupancy, 10 mg/kg sc, 30 min", "value": 78.5, "unit": "%"}, {"measurement": "receptor occupancy at 100 mg/kg", "setting": "α7 nAChR [1]; mouse, sc, read-out: % ex vivo α7 nAChR occupancy, 100 mg/kg sc, 30 min, individual mice", "value": 91.3, "unit": "%"}, {"measurement": "% ex vivo α7 nAChR occupancy", "setting": "α7 nAChR [2]; 3 mg/kg po, 90 min, individual rats", "value": "65% and 63% and 62% and 28%"}, {"measurement": "% ex vivo α7 nAChR occupancy", "setting": "α7 nAChR [2]; 10 mg/kg po, 90 min", "value": "83% and 78% and 77% and > 75%"}, {"measurement": "% ex vivo α7 nAChR occupancy", "setting": "α7 nAChR [2]; 30 mg/kg po, 90 min, individual rats", "value": "82% and 90% and 67% and 69%"}, {"measurement": "receptor occupancy at 10 mg/kg", "setting": "α7 nAChR [2]; po, 10 mg/kg po, 90 min, read-out: % ex vivo α7 nAChR occupancy", "value": 80, "unit": "%"}, {"measurement": "receptor occupancy at 10 mg/kg", "setting": "α7 nAChR [2]; rats, 10 mg/kg sc to 30 mg/kg po, read-out: ex vivo α7 nAChR occupancy at doses associated with a loss of efficacy", "value": "≥ 80", "unit": "%"}, {"measurement": "EC50", "setting": "α7 nAChR [2]; rats, read-out: total plasma concentration achieving 50% ex vivo α7 nAChR occupancy", "value": 810, "unit": "nM"}, {"measurement": "Brain Mean ± SD", "setting": "[3]; Rat MK-801 Set Shift (0.3-3 mg/kg study), 0.30 mg/kg po, 150 min", "value": "< LLQ"}, {"measurement": "concentration at 150 min", "setting": "[3]; [4]", "value": "13 ± 3", "unit": "nM"}, {"measurement": "concentration at 150 min", "setting": "[3]; [5]", "value": "100 ± 39", "unit": "nM"}, {"measurement": "concentration at 150 min", "setting": "[3]; [6]", "value": "132 ± 17", "unit": "nM"}, {"measurement": "concentration at 150 min", "setting": "[3]; [7]", "value": "533 ± 111", "unit": "nM"}, {"measurement": "concentration at 150 min", "setting": "[3]; 30 mg/kg, Rat MK-801 Set Shift (3-30 mg/kg study), 30 mg/kg po, 150 min", "value": 2220, "unit": "nM"}, {"measurement": "concentration at 30 min", "setting": "[3]; 0.03 mg/kg, Rat MMN, 0.03 mg/kg sc", "value": 13, "unit": "nM"}, {"measurement": "concentration at 30 min", "setting": "[3]; 0.3 mg/kg, Rat MMN, 0.30 mg/kg sc", "value": "13 ± 0.65", "unit": "nM"}, {"measurement": "concentration at 30 min", "setting": "[3]; 0.3 mg/kg, Rat N40 Gating, 0.30 mg/kg sc", "value": "21 ± 6", "unit": "nM"}, {"measurement": "concentration at 30 min", "setting": "[3]; 0.56 mg/kg, Rat N40 Gating, 0.56 mg/kg sc", "value": "42 ± 10", "unit": "nM"}, {"measurement": "concentration at 30 min", "setting": "[3]; 1 mg/kg, Rat MMN, 1 mg/kg sc", "value": "74 ± 18", "unit": "nM"}, {"measurement": "concentration at 30 min", "setting": "[3]; 1 mg/kg, Rat N40 Gating, 1 mg/kg sc", "value": "97 ± 14", "unit": "nM"}, {"measurement": "concentration at 30 min", "setting": "[3]; 3 mg/kg, Rat MMN, 3 mg/kg sc", "value": "378 ± 161", "unit": "nM"}, {"measurement": "concentration at 30 min", "setting": "[3]; 3 mg/kg, Rat N40 Gating, 3 mg/kg sc", "value": "372 ± 33", "unit": "nM"}, {"measurement": "Kp at 150 min", "setting": "[3]; [4]", "value": 0.25}, {"measurement": "Kp at 150 min", "setting": "[3]; [5]", "value": 0.24}, {"measurement": "Kp at 150 min", "setting": "[3]; [6]", "value": 0.29}, {"measurement": "Kp at 150 min", "setting": "[3]; [7]", "value": 0.29}]}
